The target in assay [1] is T1, Bromodomain-containing protein 4 (Homo sapiens, UniProt O60885). The experiment in a line: Inhibition of human full length BRD4.
The target in assay [2] is T1, Bromodomain-containing protein 4. The assay is described as follows: Inhibition of BRD4 (unknown origin) BD1 domain.
The target in the next assay is Histone deacetylase. The experiment in a line: Inhibition of HDAC (unknown origin). Type of assay: protein assay, Homo sapiens.
Assay [3] has as its target T1, Bromodomain-containing protein 4. The experiment in a line: Induction of BRD4 (unknown origin) degradation at 100 nM relative to control.
The target is the same in assay [4]. The assay is described as follows: Induction of BRD4 degradation in human MV4-11 cells at 100 nM measured after 18 hrs relative to control. Format: cell-based.
For assay [5] the target is unchanged. The assay is described as follows: Inhibition of BRD4 (unknown origin) BD1 domain incubated for 18 hrs.
The subject of a further assay is MV4-11. The assay is described as follows: Antitumor activity against human MV4-11 cells xenografted in mouse assessed as TGI at 1 mg/kg, po measured after 7 days relative to control. The settings on record: MV4-11, 168 h, time 7 day, read-out: TGI. Type of assay: functional.

The values below come from ChEMBL document CHEMBL5244243, “Novel strategies targeting bromodomain-containing protein 4 (BRD4) for cancer drug discovery” (Eur J Med Chem, 2020).

SMILES strings stand for the structures.

Consider `Cc1noc(C)c1-c1ccc2c(c1)c(Cc1ccc(F)cc1)cn2CCCCCCC(=O)NO`, for which half-maximal inhibition in assay [1] (IC50) required 5 nM. Take `Cc1sc2c(c1C)C(c1ccc(Cl)cc1)=N[C@@H](CC(=O)Nc1ccc(C(=O)NO)cc1)c1nnc(C)n1-2`: the results for the 50% inhibitory concentration (IC50) (in assay [2]; on Histone deacetylase) were 11 nM and 21 nM, respectively. Turning to `Cc1ncsc1-c1ccc(CNC(=O)[C@@H]2C[C@@H](O)CN2C(=O)C(NC(=O)COCCOCCOCCNC(=O)C[C@@H]2N=C(c3ccc(Cl)cc3)c3c(sc(C)c3C)-n3c(C)nnc32)C(C)(C)C)cc1` (some centres not stated), in assay [3], the Activity was 90%.

`Cc1sc2c(c1C)C(c1ccc(Cl)cc1)=N[C@@H](CC(=O)NCCCCNC(=O)COc1cccc3c1C(=O)N(C1CCC(=O)NC1=O)C3=O)c1nnc(C)n1-2` (some centres not stated): the Activity in assay [4] was determined as 87%. In the case of `COc1nnc2ccc(N3CCC(c4ccc(OCCN5CCN(C)C(=O)[C@H]5C)cc4)CC3)nn12` [AZD-5153], in assay [5], the IC50 turned out to be 1.6 nM. The inhibition in vivo at 1 mg/kg in the assay with MV4-11 was 72%.
